Test results: PMC6268222, “Inhibitory Effects of Resveratrol Analogs on Mushroom Tyrosinase Activity” (Molecules, 2012)
Converted amounts (≈) assume the structure as drawn.

How the values were obtained:
[1] = biological target: mushroom tyrosinase (Agaricus bisporus, UniProt C7FF04); test: Tyrosinase inhibition qualitative enzymatic reaction screening; assay type: biochemical; settings: second hour of assay; p > 0.05
Experimental: The ability to inhibit the activity of tyrosinase enzyme was evaluated using the enzymatic method described by Macrini et al., with modifications. This method relies on the inhibition of tyrosinase in the presence of its substrate tyrosine, interrupting the synthesis of melanin.
Aliquots (10 µL) of a solution composed of 125 U/mL of mushroom tyrosinase (Sigma-Aldrich, St. Louis, MO, USA) were added to 96-well microplates, and then pH 6.8 phosphate buffer solution (70 µL) and the analogs (60 µL, 350 µg/mL, in 2.5% DMSO) were also added. […] To the resultant mixture, L-tyrosine (70 µL, Sigma-Aldrich) at a concentration of 0.3 mg/mL in distilled water was added (final volume in the wells = 210 µL). The absorbances of the microplate wells were read on a spectrophotometric microplate reader (SpectraCount, Packard, Meriden, CT, USA) at 510 nm (T0). Then, the microplates were incubated at 30 ± 1 °C for 60 minutes and the absorbances were registered again (T1). An additional incubation for 60 minutes at 30 ± 1 °C was done and after this period a new spectrophotometric reading was conducted (T2). The inhibitory percentage at the two times (T1 and T2) was obtained according to the formula to inhibitory activity percentage as follows: [drawing 9] (1) Where IC% = inhibitory activity; C = negative control absorbance; S = sample or positive control absorbance (absorbance at time T1 or T2 minus the absorbance at time T0).

[2] = system: B16-F10 murine melanoma cells; design: method as in PMID 22189272; settings: cited from earlier work
[3] = biological target: tyrosinase; design: method as in earlier work; settings: ref 13 (Bernard and Berthon); cited from earlier work

mushroom tyrosinase, sequence (C7FF04 1-392): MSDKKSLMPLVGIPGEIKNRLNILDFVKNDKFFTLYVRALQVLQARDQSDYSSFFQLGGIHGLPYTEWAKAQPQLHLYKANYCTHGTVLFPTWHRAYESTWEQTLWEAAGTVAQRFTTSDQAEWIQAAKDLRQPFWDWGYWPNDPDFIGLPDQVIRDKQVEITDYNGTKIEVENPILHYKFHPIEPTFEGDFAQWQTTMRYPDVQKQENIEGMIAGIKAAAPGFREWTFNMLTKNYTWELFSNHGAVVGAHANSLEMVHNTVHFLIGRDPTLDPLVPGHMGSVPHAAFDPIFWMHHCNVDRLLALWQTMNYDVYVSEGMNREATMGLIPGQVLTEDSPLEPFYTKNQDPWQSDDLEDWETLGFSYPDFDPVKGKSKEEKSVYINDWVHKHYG

SMILES | melting point [°C] | inhibitory ability compared with kojic acid [1] | further results
O=[N+]([O-])c1ccc(/C=N/c2ccccc2)cc1 [Analog C] | 89.6 to 90.7 |  | 
Oc1ccc(/C=N/c2ccccc2)cc1 [Analog D] |  | statistically equal to that of kojic acid | 
Oc1ccccc1/C=N/c1ccccc1 [Analog E] |  | statistically equal to that of kojic acid | 
COc1cc(/C=N/c2ccccc2)ccc1O [Analog F] | 53.1 to 54.2 | statistically equal to that of kojic acid | 
Oc1ccc(/C=C/c2cc(O)cc(O)c2)cc1 [resveratrol, Resveratrol] |  |  | cellular melanin production [2]: significantly suppressed; cytotoxicity (concentration without any cytotoxicity) [2]: > 200 µM; IC50 (tyrosinase inhibition) [3]: 57.05 µg/mL (≈ 250 µM)
